US20100267561A1, “HERBICIDAL PYRIDAZINONE DERIVATIVES” (priority 2007, published 2010)
Read-outs that look alike come from different tables or passages of the source.

Key:
Format in all cases: in vivo
[1] = system: giant foxtail (Setaria faberi); experiment: Test A pre-/postemergence plant response; conditions: Setaria faberi, 240 h, read-out: Plant response rating, Foxtail, Giant; for pest or weed control at 31 g/ha: 31 g ai/ha; for pest or weed control at 125 g/ha: 125 g ai/ha
Outline: (§1)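 Seeds were planted in blended loam soil and sand, then treated preemergence by directed soil spray. At that time, emerged plants (one- to two-leaf, 2–10 cm) received postemergence applications of the same surfactant-containing formulation. Injury was assessed visually on a 0–100 scale after approximately 10 days.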

[2] = system: wheat (Triticum aestivum); experiment: Test A pre-/postemergence plant response; conditions: Triticum aestivum, 240 h, read-out: Plant response rating, Wheat; for plant injury at 31 g/ha: 31 g ai/ha; for plant injury at 125 g/ha: 125 g ai/ha
Outline: as §1

[3] = system: large crabgrass (Digitaria sanguinalis); experiment: Test A pre-/postemergence plant response; conditions: Digitaria sanguinalis, 240 h, read-out: Plant response rating, Crabgrass, Large; for pest or weed control at 31 g/ha: 31 g ai/ha; for pest or weed control at 125 g/ha: 125 g ai/ha
Outline: as §1

[4] = system: barnyardgrass (Echinochloa crus-galli); experiment: Test A pre-/postemergence plant response; conditions: Echinochloa crus-galli, 240 h, read-out: Plant response rating, Barnyardgrass; for pest or weed control at 31 g/ha: 31 g ai/ha; for pest or weed control at 125 g/ha: 125 g ai/ha
Outline: as §1

corn (Zea mays) = experiment: Test A pre-/postemergence plant response; conditions: Zea mays, 240 h; for Corn plant response rating (crop injury, 0 = no effect, 100 = complete kill) at 31 g/ha: 31 g ai/ha; for Corn plant response rating (crop injury, 0 = no effect, 100 = complete kill) at 125 g/ha: 125 g ai/ha
Outline: as §1

[5] = system: pigweed (Amaranthus retroflexus); experiment: Test A pre-/postemergence plant response; conditions: Amaranthus retroflexus, 240 h, read-out: Plant response rating, Pigweed; for pest or weed control at 31 g/ha: 31 g ai/ha; for pest or weed control at 125 g/ha: 125 g ai/ha
Outline: as §1

[6] = system: green foxtail (Setaria viridis); experiment: Test B pre-/postemergence plant response; conditions: for pest or weed control at 31 g/ha: 31 g ai/ha; for pest or weed control at 62 g/ha: 62 g ai/ha, 100 complete control
Description: (§2) Seeds of plant species selected from blackgrass (Alopecurus myosuroides), downy bromegrass (Bromus tectorum), green foxtail (Setaria viridis), Italian ryegrass (Lolium multiflorum), wheat (Triticum aestivum), wild oat (Avena fatua), catchweed bedstraw (Galium aparine), bermudagrass (Cynodon dactylon), surinam grass (Brachiaria decumbens), cocklebur (Xanthium strumarium), corn (Zea mays), large crabgrass (Digitaria sanguinalis), woolly cupgrass (Eriochloa villosa), giant foxtail (Setaria faberii), goosegrass (Eleusine indica), johnsongrass (Sorghum halepense), kochia (Kochia scoparia), lambsquarters (Chenopodium album), morningglory (Ipomoea coccinea), eastern black (E.B.) nightshade (Solanum ptycanthum), yellow nutsedge (Cyperus esculentus), pigweed (Amaranthus retroflexus), common ragweed (Ambrosia elation), Russian thistle (Salsola iberica), soybean (Glycine max), common (oilseed) sunflower (Helianthus annuus), and velvetleaf (Abutilon theophrasti) were planted and treated preemergence with test chemicals formulated in a non-phytotoxic solvent mixture which included a surfactant.
(§3) At the same time, plants selected from these crop and weed species and also winter barley (Hordeum vulgare), canarygrass (Phalaris minor), chickweed (Stellaria media) and windgrass (Apera spica-venti) were treated with postemergence applications of some of the test chemicals formulated in the same manner. Plants ranged in height from 2 to 18 cm (1- to 4-leaf stage) for postemergence treatments.
(§4) Plant species in the flooded paddy test consisted of rice (Oryza sativa), umbrella sedge (Cyperus difformis), ducksalad (Heteranthera limosa) and barnyardgrass (Echinochloa crus-galli) grown to the 2-leaf stage for testing. At time of treatment, test pots were flooded to 3 cm above the soil surface, treated by application of test compounds directly to the paddy water, and then maintained at that water depth for the duration of the test. Treated plants and controls were maintained in a greenhouse for 13 to 15 days, after which time all species were compared to controls and visually evaluated. Plant response ratings, summarized in Table B, are based on a scale of 0 to 100 where 0 is no effect and 100 is complete control. A dash (-) response means no test result.

[7] = system: wheat (Triticum aestivum); experiment: Test B pre-/postemergence plant response; conditions: for plant injury at 31 g/ha / plant injury at 62 g/ha: Triticum aestivum, read-out: Plant response rating, Wheat; for plant injury at 31 g/ha: 31 g ai/ha; for plant injury at 62 g/ha: 62 g ai/ha, 100 complete control
Description: as §2, §3, §4

[8] = system: johnsongrass (Sorghum halepense); experiment: Test B pre-/postemergence plant response; conditions: for pest or weed control at 31 g/ha / pest or weed control at 62 g/ha: Sorghum halepense, read-out: Plant response rating, Johnsongrass; for pest or weed control at 31 g/ha: 31 g ai/ha; for pest or weed control at 62 g/ha: 62 g ai/ha, 100 complete control
Description: as §2, §3, §4

[9] = post-emergence, Postemergence, 0 to 100 scale (0 no effect, 100 complete control)
[10] = post-emergence, Postemergence, 0 to 100 scale, 0 no effect, 100 complete control
[11] = pre-emergence, Preemergence, 0 to 100 scale, 0 is no effect, 100 is complete control
[12] = pre-emergence, Preemergence, 0 to 100 scale (0 no effect, 100 complete control)
[13] = 8 g ai/ha, postemergence, 0-100 scale
[14] = Preemergence, 8 g ai/ha, scale 0 to 100 (0 no effect, 100 complete control)
[15] = Preemergence, 16 g ai/ha, scale 0 to 100
[16] = 16 g ai/ha, postemergence, 0-100 scale
[17] = post-emergence, Postemergence, scale 0 to 100
[18] = post-emergence, Postemergence, scale 0 to 100, 0 no effect
[19] = pre-emergence, Preemergence, scale 0 to 100 (0 no effect, 100 complete control)
[20] = pre-emergence, Preemergence, 0 to 100 scale, 0 no effect

## Cc1cc(-c2ccc(Br)cc2)nn1-c1c(O)cn[nH]c1=O [Compound 78, 4-[3-(4-bromophenyl)-5-methyl-1H-pyrazol-1-yl]-5-hydroxy-3(2H)-pyridazinone]
[1]; [9]
  pest or weed control at 31 g/ha: 80%
[1]; [10]
  pest or weed control at 125 g/ha: 100%
[1]; [11]
  pest or weed control at 31 g/ha: 20%
[1]; [12]
  pest or weed control at 125 g/ha: 100%
[2]; [9]
  plant injury at 31 g/ha: 70%
[2]; [10]
  plant injury at 125 g/ha: 90%
[2]; [11]
  plant injury at 31 g/ha: 0%
[2]; [12]
  plant injury at 125 g/ha: 90%
[3]; [9]
  pest or weed control at 31 g/ha: 80%
[3]; [10]
  pest or weed control at 125 g/ha: 100%
[3]; [11]
  pest or weed control at 31 g/ha: 10%
[3]; [12]
  pest or weed control at 125 g/ha: 100%
[4]; [9]
  pest or weed control at 31 g/ha: 90%
[4]; [10]
  pest or weed control at 125 g/ha: 100%
[4]; [11]
  pest or weed control at 31 g/ha: 0%
[4]; [12]
  pest or weed control at 125 g/ha: 100%
Corn (Zea mays); [9]
  Corn plant response rating (crop injury, 0 = no effect, 100 = complete kill) at 31 g/ha: 60%
Corn (Zea mays); [10]
  Corn plant response rating (crop injury, 0 = no effect, 100 = complete kill) at 125 g/ha: 100%
Corn (Zea mays); [11]
  Corn plant response rating (crop injury, 0 = no effect, 100 = complete kill) at 31 g/ha: 0%
Corn (Zea mays); [12]
  Corn plant response rating (crop injury, 0 = no effect, 100 = complete kill) at 125 g/ha: 90%
[5]; [9]
  pest or weed control at 31 g/ha: 0%
[5]; [10]
  pest or weed control at 125 g/ha: 0%
[5]; [11]
  pest or weed control at 31 g/ha: 0%
[5]; [12]
  pest or weed control at 125 g/ha: 0%
[6]; [13]
  Foxtail, Green plant response rating: 40
[6]; [14]
  Foxtail, Green plant response rating: 100
[6]; [15]
  Foxtail, Green plant response rating: 100
[6]; Setaria viridis, post-emergence, Postemergence, 16 g ai/ha, scale 0 to 100, read-out: Plant response rating, Foxtail, Green
  pest or weed control at 16 g/ha: 60%
[6]; Setaria viridis, post-emergence, Postemergence, scale 0 to 100, read-out: Plant response rating, Foxtail, Green
  pest or weed control at 31 g/ha: 80%
[6]; Setaria viridis, post-emergence, Postemergence, scale 0 to 100, 0 no effect, read-out: Plant response rating, Foxtail, Green
  pest or weed control at 62 g/ha: 100%
[6]; Setaria viridis, pre-emergence, Preemergence, scale 0 to 100 (0 no effect, 100 complete control), read-out: Plant response rating, Foxtail, Green
  pest or weed control at 31 g/ha: 100%
[6]; Setaria viridis, pre-emergence, Preemergence, 0 to 100 scale, 0 no effect, read-out: Plant response rating, Foxtail, Green
  pest or weed control at 62 g/ha: 100%
[7]; [13]
  Wheat plant response rating: 50
[7]; [16]
  Wheat plant response rating: 85
[7]; [14]
  Wheat plant response rating: 0
[7]; [15]
  Wheat plant response rating: 80
[7]; [17]
  plant injury at 31 g/ha: 98%
[7]; [18]
  plant injury at 62 g/ha: 100%
[7]; [19]
  plant injury at 31 g/ha: 90%
[7]; [20]
  plant injury at 62 g/ha: 95%
[8]; [13]
  Johnsongrass plant response rating: 75
[8]; [16]
  Johnsongrass plant response rating: 100
[8]; [14]
  Johnsongrass plant response rating: 60
[8]; [15]
  Johnsongrass plant response rating: 80
[8]; [17]
  pest or weed control at 31 g/ha: 100%
[8]; [18]
  pest or weed control at 62 g/ha: 100%
[8]; [19]
  pest or weed control at 31 g/ha: 95%
[8]; [20]
  pest or weed control at 62 g/ha: 100%
